Measured values published in patent US20160213041A1, “NUTRITIONAL COMPOSITION HAVING LIPOPHILIC COMPOUNDS WITH IMPROVED SOLUBILITY AND BIOAVAILABILITY” (ABBOTT LABORATORIES, priority 2013, published 2016).

Legend:
[1] = 33° C.; cited from earlier work
[2] = Centrifugation/ultrafiltration analysis of lutein and MDG in MDG batches (Example 60); type: physicochemical; settings: centrifugation at 1,000×g, samples with NFDM
Method: A study was conducted to further investigate the distribution of lutein and MDG within the nutritional composition. Samples included MDG/lutein/water; MDG/lutein/NFDM/water; MDG/lutein/WPC/water; and MDG/water.
The premixes were provided as follows: in samples that contained lutein, lutein was heated for 2 h at 50° C. with shaking. […] In samples that contained protein, non-fat dried milk was added to water (50-60° C.) with agitation and allowed to hydrate for approximately 10 min.
The samples were prepared as follows: for solution 1, water was heated to 50-60° C., an lutein in GMO-40 blend and turrax (30 sec 10000 rpm) was added; for solution 2, NFDM was placed in water solution heated to 50-60° C., and lutein was added in GMO-40 blend and turrax (30 sec 10000 rpm); for solution 3, water was heated to 50-60° C., and GMO-40 blend and turrax (30 sec 10000 rpm) was added. The solutions are listed in the table below as X.1, wherein 1 is the solution.
Samples were formulated as detailed above, and then characterized by ultrafiltration with various membranes, as well as ultracentrifuged at various times and speed (e.g., 100,000×g, 4,500×g, and 1,000×g). The details of the different centrifugation/filtration method are listed below. […]

[3] = Distribution of lutein and MDG over cream, aqueous and pellet layers after 100,000×g (Example 58); type: physicochemical; settings: 100,000×g for 1 hour
Method: A study was conducted to investigate the distribution of lutein and MDG within the nutritional compositions. Sample were prepared using homogenization at 150/20 bar, and then centrifuged at 100,000×g for 1 hour. The different layers (e.g., cream, aqueous, and pellet) were then analyzed for the presence of lutein and MDG.

Row | Compound | reported solubility limit in water [1] [mg/kg] | lutein found in the aqueous phase [2] [%] | lutein contained in the pellet [3] | present in the aqueous phase following centrifugation ([3]; nutritional compositions comprising MDG, of the nutritional composition)
1 | vitamin E | 20.9 | – | – | –
2 | CC1=C[C@H](O)CC(C)(C)[C@H]1/C=C/C(C)=C/C=C/C(C)=C/C=C/C=C(C)/C=C/C=C(C)/C=C/C1=C(C)C[C@@H](O)CC1(C)C [lutein] | – | ~20 | approximately 1% | approximately 4 wt %
